Experimental data taken from ChEMBL document CHEMBL5137114, “Discovery of IHMT-MST1-58 as a Novel, Potent, and Selective MST1 Inhibitor for the Treatment of Type 1/2 Diabetes” (J Med Chem, 2022).
Active and inactive are the calls of the source. No cut-off for these calls is given here.

How the values were obtained:
[1] = target: T1, Serine/threonine-protein kinase 3 (Homo sapiens, UniProt Q13188); test: Inhibition of recombinant full length N-terminal GST -tagged human MST2 expressed in baculovirus infected Sf9 insect cells using KKSRGDYMTMQIG as substrate incubated for 1 hr in presence of ATP by ADP-Glo luminescent assay
T1 sequence (Q13188 whole entry): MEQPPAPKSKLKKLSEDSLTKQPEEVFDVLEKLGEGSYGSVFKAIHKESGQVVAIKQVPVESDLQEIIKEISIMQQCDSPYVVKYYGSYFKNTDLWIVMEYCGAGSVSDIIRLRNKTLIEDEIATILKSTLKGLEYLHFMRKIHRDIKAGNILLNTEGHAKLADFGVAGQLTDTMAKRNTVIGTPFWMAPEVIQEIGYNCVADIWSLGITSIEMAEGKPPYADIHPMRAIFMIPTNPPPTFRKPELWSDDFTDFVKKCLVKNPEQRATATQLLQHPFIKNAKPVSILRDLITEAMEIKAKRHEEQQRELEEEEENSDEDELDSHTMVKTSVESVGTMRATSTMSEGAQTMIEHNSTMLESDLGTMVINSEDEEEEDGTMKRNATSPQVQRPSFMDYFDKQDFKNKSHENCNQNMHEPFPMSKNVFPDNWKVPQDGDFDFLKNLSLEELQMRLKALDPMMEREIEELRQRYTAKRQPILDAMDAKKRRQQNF

[2] = target: T2, Serine/threonine-protein kinase Nek3 (Homo sapiens, UniProt P51956); test: Inhibition of recombinant full length N-terminal GST -tagged human NEK3 expressed in baculovirus expression system using S2 as substrate incubated for 2 hrs by HTRF assay
T2 sequence (P51956 whole entry): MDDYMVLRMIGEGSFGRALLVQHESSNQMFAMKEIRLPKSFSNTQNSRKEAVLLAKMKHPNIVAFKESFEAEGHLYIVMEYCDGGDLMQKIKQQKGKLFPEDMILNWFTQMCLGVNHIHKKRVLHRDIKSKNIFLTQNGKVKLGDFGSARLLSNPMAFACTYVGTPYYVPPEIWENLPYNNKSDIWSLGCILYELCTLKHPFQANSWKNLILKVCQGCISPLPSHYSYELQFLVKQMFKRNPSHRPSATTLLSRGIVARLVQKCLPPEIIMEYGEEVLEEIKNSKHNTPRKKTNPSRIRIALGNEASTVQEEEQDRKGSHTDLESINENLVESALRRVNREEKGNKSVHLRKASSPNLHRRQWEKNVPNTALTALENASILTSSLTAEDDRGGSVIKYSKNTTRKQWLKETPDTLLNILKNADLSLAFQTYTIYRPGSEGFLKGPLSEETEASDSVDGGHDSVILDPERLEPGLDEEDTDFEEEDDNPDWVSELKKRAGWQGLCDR

[3] = target: T1, Serine/threonine-protein kinase 3; test: Binding affinity to wild-type human partial length MST2 (D17 to E318 residues) expressed in bacterial expression system by Kinomescan method
[4] = test system: RAW264.7; test: Inhibition of MST1 in mouse RAW264.7 cells assessed as reduction in H2O2-stimulated MOB1 phosphorylation at T35 residue preincubated for 2 hrs followed by H2O2 addition for 30 mins by Western blotting analysis; type: cell-based; settings: dose 0.1-10 µM, time 2.5 hrs, DDE = dose-dependent effect
[5] = test system: RAW264.7; test: Inhibition of MST1 in mouse RAW264.7 cells assessed as reduction in H2O2-stimulated MST1/MST2 autophosphorylation at T183/T180 residues preincubated for 2 hrs followed by H2O2 addition for 30 mins by Western blotting analysis; type: cell-based; settings: dose 0.1-10 µM, time 2.5 hrs, DDE = dose-dependent effect
[6] = Half life in mouse at 1 mg/kg, iv measured up to 12 hrs by LC-MS/MS analysis; type: ADME, organism-based; settings: in vivo
[7] = Half life in Sprague-Dawley rat at 1 mg/kg, iv measured up to 12 hrs by LC-MS/MS analysis; type: ADME, organism-based; settings: in vivo
[8] = AUC (0 to t) in Sprague-Dawley rat at 10 mg/kg, po measured up to 24 hrs by LC-MS/MS analysis; type: ADME, organism-based; set-up: time < 24 hrs, dose 10 mg/kg, route po; settings: in vivo
[9] = Cmax in Sprague-Dawley rat at 10 mg/kg, po measured up to 24 hrs by LC-MS/MS analysis; type: ADME, organism-based; set-up: dose 10 mg/kg, time < 24 hrs, route po; settings: in vivo
[10] = Half life in Beagle dog at 1 mg/kg, iv measured up to 12 hrs by LC-MS/MS analysis; type: ADME, organism-based, Canis lupus familiaris; settings: in vivo
[11] = Cmax in Beagle dog at 1 mg/kg, iv measured up to 12 hrs by LC-MS/MS analysis; type: ADME, organism-based, Canis lupus familiaris; set-up: dose 1 mg/kg, time < 12 hrs, route iv; settings: in vivo
[12] = Oral bioavailability in Beagle dog at 10 mg/kg measured up to 24 hrs by LC-MS/MS analysis; type: ADME, organism-based, Canis lupus familiaris; settings: in vivo
[13] = test system: Mus musculus; test: Antidiabetic activity against 8 hrs fasted multi low dose STZ-induced C57BL/6J mouse model of type 1 diabetes assessed as decrease in fasting blood glucose level at 50 mg/kg, po administered for 77 days (reference value: 22.3 mmol/L); type: functional; settings: time 77 day
[14] = test system: Mus musculus; test: Antidiabetic activity in multi low dose STZ-induced C57BL/6J mouse model of type 1 diabetes assessed as reduction in HbA1c level at 50 mg/kg, po qd (reference value: 7.6 %); type: functional; set-up: scale not given: the % may be the effect or the level left
[15] = Toxicity in multi low dose STZ-induced C57BL/6J mouse model of type 1 diabetes assessed as effect on pancreas morphology at 50 mg/kg, po qd by H and E staining based analysis; type: organism-based; settings: in vivo
[16] = Toxicity in multi low dose STZ-induced C57BL/6J mouse model of type 1 diabetes assessed as effect on pancreas morphology at 50 mg/kg, po qd in presence of metformin by H and E staining based analysis; type: organism-based; settings: in vivo
[17] = Toxicity in high multi low dose STZ-induced C57BL/6J mouse model of Type 1 diabetes assessed as effect on body weight at 50 mg/kg, po qd in presence of metformin; type: organism-based; settings: in vivo
[18] = Cytotoxicity against rat RIN-m5F cells at 10 uM incubated for 72 hrs by Cell Titer-Glo assay; type: toxicity, cell-based
[19] = test system: INS1; test: Protection against TNF-alpha-induced damage in rat INS1 cells assessed as increase in cell survival at 0.03 to 0.3 uM incubated for 48 hrs by Cell Titer-Glo assay; type: functional, cell-based; settings: dose 0.03-0.3 µM
[20] = test system: RIN-m5F; test: Protection against IL-1beta-induced cell damage in rat RIN-m5F cells assessed as increase in cell survival at 0.03 to 0.3 uM incubated for 48 hrs by Cell Titer-Glo assay; type: functional, cell-based; settings: dose 0.03-0.3 µM
[21] = test system: Serine/threonine-protein kinase 4 (Rattus norvegicus); test: Inhibition of IL-1beta-stimulated MST1 phosphorylation in rat INS1 cells incubated for 12 hrs by Western blotting analysis; settings: dose 0.1-10 µM, DDE = dose-dependent effect
[22] = test system: Serine/threonine-protein kinase 4 (Rattus norvegicus); test: Inhibition of INF-gamma-stimulated MST1 phosphorylation in rat RIN-m5F cells incubated for 12 hrs by Western blotting analysis; settings: dose 0.1-10 µM, DDE = dose-dependent effect
[23] = test system: Serine/threonine-protein kinase 4 (Rattus norvegicus); test: Inhibition of TNF-alpha-stimulated MST1 in rat RIN-m5F cells assessed as reduction in MOB1 autophosphorylation incubated for 12 hrs by Western blotting analysis; settings: dose 0.1-10 µM, DDE = dose-dependent effect

IC50 [1]: 652 nM
IC50 [2]: > 10 µM
Kd [3]: 2700 nM
half-life [6]: 102 min
half-life [7]: 211 min
AUCt [8]: 4858 ng·h/mL
Cmax [9]: 1720 ng/mL
half-life [10]: 388 min
Cmax [11]: 467 ng/mL
bioavailability [12]: 106%
inhibition [21]: Dde
inhibition [22]: Dde
inhibition [23]: Dde
Compound: Cc1ccccc1C1C(=O)N(C)c2cnc(Nc3ccc(S(N)(=O)=O)cc3)nc2N1C (stereo not drawn)
inhibition [4]: Dde
inhibition [5]: Dde
Activity [13]: 14.2 mmol/L
Activity [14]: 6.7%
Activity [15]: Non-Toxic
Activity [16]: Non-Toxic
Activity [17]: Non-Toxic
Activity [18]: Non-Toxic
Activity [19]: Active
Activity [20]: Active
